Measured values: the NIST ThermoML archive (doi:10.1021/je020115d)

Settings: Liquid

FCF [difluoromethane]
Settings | vapor or sublimation pressure [kPa]
283.19 K | 1111
288.21 K | 1286
293.24 K | 1481
298.26 K | 1697
303.27 K | 1935
308.28 K | 2197
313.3 K | 2485
318.28 K | 2801
323.3 K | 3147
328.31 K | 3526
343.26 K | 4892

CCC [propane]
Settings | vapor or sublimation pressure [kPa]
277.17 K | 536
283.22 K | 638
288.26 K | 734
293.27 K | 838
298.3 K | 955
302.27 K | 1055
308.8 K | 1236
311.8 K | 1326
313.24 K | 1370
318.22 K | 1537
323.22 K | 1716
328.26 K | 1911
333.29 K | 2120
338.31 K | 2346
343.26 K | 2591
348.31 K | 2852
353.41 K | 3134
